Assay results from patent US6313173A, “Glyoxylic acid amides” (Bayer Aktiengesellschaft, priority 1996, dated 2001).

Assays:
Phytophthora infestans = format: in vivo; details: tomato, protective; application rate of 50 g/ha; 3 days after the inoculation
[1] = hplc
physchem = details: hplc
Plasmopara viticola = assay: Plasmopara Test (Grapevine)/protective; format: in vivo; details: protective, application rate of 50 g/ha, 6 days after the inoculation
[2] = E/Z mixture, second of two values (Z position)

SMILES | efficacy (Phytophthora infestans) [%] | chromatographic logP (logP determined by HPLC; E/Z mixture, (E position)) | chromatographic logP (logP determined by HPLC; [2]) | chromatographic logP (physchem) | chromatographic logP (logP determined by HPLC; single value (single isomer)) | further results
CCOc1ccc(CC(C)NC(=O)C(=NOC)c2ccc3c(c2)CCCC3)cc1OC (stereo not shown) [Example 1, N-[2-(4-ethoxy-3-methoxyphenyl)-1-methylethyl]-2-methoxyimino-2-(5,6,7,8-tetrahydronaphthalin-2-yl)-acetic acid amide] | ≥ 86 | 3.72 | 4.04 |  |  | 
CCOc1ccc(CC(C)NC(=O)C(=NOC)c2ccc(Br)cc2)cc1OC (stereo not shown) [Example 2] |  |  |  | 3.34 |  | logP [1]: 3.64
CCOc1ccc(CC(C)NC(=O)C(=NOC)c2ccc3c(c2)CCC3)cc1OC (stereo not shown) [Example 3] |  | 3.13 | 3.44 |  |  | 
CCOc1ccc(CC(C)NC(=O)C(=NOC)c2ccc(Cl)cc2)cc1OC (stereo not shown) [Example 4] |  |  |  | 3.26 |  | logP [1]: 3.56
CCOc1ccc(CC(C)NC(=O)/C(=N\OC)c2ccc(Br)cc2)cc1OC (stereo not shown) [Example 5] |  |  |  | 3.64 |  | 
CCOc1ccc(CC(C)NC(=O)/C(=N/OC)c2ccc(Br)cc2)cc1OC (stereo not shown) [Example 6] | ≥ 86 |  |  | 3.34 |  | efficacy (Plasmopara viticola): ≥ 96%
CCOc1ccc(CC(C)NC(=O)/C(=N/OC)c2ccc(Cl)cc2)cc1OC (stereo not shown) [Example 7] | ≥ 86 |  |  | 3.26 |  | efficacy (Plasmopara viticola): ≥ 96%
CCON=C(C(=O)NC(C)Cc1ccc(OCC)c(OC)c1)c1ccc2c(c1)CCCC2 (stereo not shown) [Example 8] |  | 4.07 | 4.41 |  |  | 
CCON=C(C(=O)NC(C)Cc1ccc(OCC)c(OC)c1)c1ccc(Br)cc1 (stereo not shown) [Example 9] |  | 3.69 | 4.01 |  |  | 
CCOc1ccc(CC(C)NC(=O)C(=NOC)c2ccc(C)cc2)cc1OC (stereo not shown) [Example 10] |  |  |  | 3.04 |  | logP [1]: 3.34
CCON=C(C(=O)NC(C)Cc1ccc(OCC)c(OC)c1)c1ccc(Cl)cc1 (stereo not shown) [Example 11] | ≥ 86 | 3.59 | 3.91 |  |  | 
CCON=C(C(=O)NC(C)Cc1ccc(OCC)c(OC)c1)c1ccc2c(c1)CCCC2 (stereo not shown) [Example 12] |  |  |  |  | 4.41 | 
CCO/N=C(/C(=O)NC(C)Cc1ccc(OCC)c(OC)c1)c1ccc2c(c1)CCCC2 (stereo not shown) [Example 13] | ≥ 86 |  |  |  | 4.07 | 
CCON=C(C(=O)NC(C)Cc1ccc(OCC)c(OC)c1)c1ccc(C)cc1 (stereo not shown) [Example 14] | ≥ 86 | 3.38 | 3.71 |  |  | efficacy (Plasmopara viticola): ≥ 96%
CCON=C(C(=O)NC(C)Cc1ccc(OCC)c(OC)c1)c1ccc(CC)cc1 (stereo not shown) [Example 15] |  | 3.73 | 4.05 |  |  | 
CCON=C(C(=O)NC(C)Cc1ccc(OCC)c(OC)c1)c1ccc2c(c1)CCC2 (stereo not shown) [Example 16] |  | 3.79 | 4.1 |  |  | 
CCO/N=C(\C(=O)NC(C)Cc1ccc(OCC)c(OC)c1)c1ccc2c(c1)CCC2 (stereo not shown) [Example 17] |  |  |  |  | 4.1 | 
CCO/N=C(/C(=O)NC(C)Cc1ccc(OCC)c(OC)c1)c1ccc2c(c1)CCC2 (stereo not shown) [Example 18] |  |  |  |  | 3.79 | 
CCO/N=C(\C(=O)NC(C)Cc1ccc(OCC)c(OC)c1)c1ccc(CC)cc1 (stereo not shown) [Example 19] |  |  |  |  | 4.05 | 
CCO/N=C(/C(=O)NC(C)Cc1ccc(OCC)c(OC)c1)c1ccc(Br)cc1 (stereo not shown) [Example 20] |  |  |  |  | 3.69 | 
